From patent US20240415814A1, “PHARMACEUTICAL COMPOSITION COMPRISING 1-(3-CYANO-1-ISOPROPYL-INDOL-5-YL)PYRAZOLE-4-CARBOXYLIC ACID” (LG CHEM, LTD., priority 2021, published 2024)
Read-outs that look alike come from different tables or passages of the source.

Tests used:
[1] = Phase 2 clinical trial: analysis of TEAEs; format: in vivo, human
Procedure: Selected patients gave written informed consent according to institutional and study procedures. After screening and wash-out processes (days 26 to 33 pre-dose), a total of 156 patients were finally enrolled, and each patient was randomly assigned to 5 groups of 50 mg, 100 mg and 200 mg dosing groups of the compound of Example 1, a placebo group, and a febuxostat group. Patients in each group self-administered 1 tablet of a combination drug (colchicine, 0.6 mg/day) for the prevention of gout flare along with the assigned investigational drug (50 mg, 100 mg and 200 mg doses of the compound of Example 1, placebo, and 40 mg of febuxostat group) orally, once every morning, at about the same time each day, with water, regardless of food.
When ULT is performed using a xanthine oxidase inhibitor compound, since there is a high possibility of gout flare as the tophi dissolves at the end of the bone during the initial treatment period, it was designed to be used in combination with colchicine for the purpose of inhibiting it. The drug was administered for 84 days by setting the first dosing day of the drug as day 1, and basic tests, serum uric acid concentration and the like were measured at clinic visits on 14 days (week 2), 28 days (week 4), 56 days (week 8), and 84 days (week 12) during the dosing period to determine whether TEAEs occurred. After the end of drug administration, a safety follow-up was performed for an additional 2 weeks (98 days, week 14).
Among all patient groups participating in the clinical trial, although the administration was stopped for 3 patients due to headache, gout flare in the left ankle, and liver dysfunction in the 100 mg dosing group of Example 1 and for 1 patient due to an increase in hepatic enzyme in the 200 mg dosing group, no significant treatment emergency adverse event (TEAE) was found in the remaining patient groups.

[2] = Pharmacokinetics according to renal function of patients; format: in vivo, human; settings: for AUC(0-t) / AUC / Cmax: both sexes, human, plasma, oral, 200 mg, 200 mg once daily, Day 7, plasma; for AUC(0-t): read-out: AUC0-t (AUC0-48 h), geometric LS mean; for AUC: read-out: AUCtau, geometric LS mean; for Cmax: read-out: Cmax, ss, geometric LS mean
Procedure: PK and PD of the compound of Example 1 were assessed under patient groups with various degrees of renal function. […] A total of 37 patients were classified into 4 groups as follows based on renal function according to eGFR which was calculated by MDRD formula: • Normal: eGFR≥90 mL/min/1.73 m^2, n=13 • Mild (mild renal function impairment): eGFR 60-less than 90 mL/min/1.73 m^2, n=8 • Moderate (moderate renal function impairment): eGFR 30-less than 60 mL/min/1.73 m^2, n=8 • Severe (severe renal function impairment): eGFR<30 mL/min/1.73 m^2 and not on hemodialysis, n=8
Blood and urine samples were collected before dosing and up to 24 or 48 hours after the final dosing for PK/PD assessment.
For the compound of Example 1, statistical analysis of pharmacokinetic parameters using an ANOVA model for the pharmacokinetic population is shown in Table 2 below. The ANOVA model was fitted to the log-transformed PK parameters, with renal function impairment group fitted as a fixed effect. Point estimates and 90% CIs for differences between the least square means on the log scale were exponentiated to express the results as ratios of geometric means and CIs on the original scale.

[3] = normal renal function (control)

CC(C)n1cc(C#N)c2cc(-n3cc(C(=O)O)cn3)ccc21 [Example 1, 1-(3-cyano-1-isopropyl-indol-5-yl)pyrazol-4-carboxylic acid]
incidence of TEAEs ([1]; 50 mg, 100 mg and 200 mg groups versus placebo and febuxostat groups): showed no difference from the placebo group and the febuxostat group in the overall TEAE
patients for whom administration was stopped (headache, gout flare in the left ankle, liver dysfunction) ([1]; 100 mg dosing group): 3 patients
patients for whom administration was stopped (increase in hepatic enzyme) ([1]; 200 mg dosing group): 1 patient
AUC0-t, ratio of geometric LS means ([2]; Mild/Normal): 1.23
AUCtau, ratio of geometric LS means ([2]; Mild/Normal): 1.23
Cmax, ss, ratio of geometric LS means ([2]; Mild/Normal): 1.32
AUC0-t, ratio of geometric LS means ([2]; Moderate/Normal): 1.19
AUCtau, ratio of geometric LS means ([2]; Moderate/Normal): 1.17
Cmax, ss, ratio of geometric LS means ([2]; Moderate/Normal): 1.15
AUC0-t, ratio of geometric LS means ([2]; Severe/Normal): 1.16
AUCtau, ratio of geometric LS means ([2]; Severe/Normal): 1.26
Cmax, ss, ratio of geometric LS means ([2]; Severe/Normal): 0.885
AUC(0-t) ([2]; mild impairment): 36500 ng·h/mL
AUC ([2]; mild impairment): 38100 ng·h/mL
Cmax ([2]; mild impairment): 7460 ng/mL
AUC(0-t) ([2]; moderate impairment): 35200 ng·h/mL
AUC ([2]; moderate impairment): 36100 ng·h/mL
Cmax ([2]; moderate impairment): 6490 ng/mL
AUC(0-t) [2, 3]: 29700 ng·h/mL
AUC [2, 3]: 30900 ng·h/mL
Cmax [2, 3]: 5640 ng/mL
AUC(0-t) ([2]; severe impairment): 34300 ng·h/mL
AUC ([2]; severe impairment): 38900 ng·h/mL
Cmax ([2]; severe impairment): 4990 ng/mL
